Experiments:
activated human B cells = test: Seahorse OCR / ECAR in activated human B cells; format: cell-based
Procedure: The bioenergetic activities of the OCR and ECAR were measured using a Seahorse XFe96 Extracellular Flux Analyzed following established protocols (Agilent). Briefly, B cells were seeded at 200,000 cells/well on Cell-Tak (Corning) coated XFe96 plate with fresh XF media (Seahorse XF RPMI medium containing 10 mM glucose, 2 mM L-glutamine, and 1 mM sodium pyruvate, PH 7.4; all reagents from Agilent). OCR was measured in the presence of Oligomycin (1.5 μM; Sigma-Aldrich), FCCP (1.5 μM; Sigma-Aldrich), and Rotenone (1 μM; Sigma-Aldrich)/Antimycin A (1 μM; Sigma-Aldrich) in Mito Stress assay. For ECAR measurement, B cells were seeded in XFe96 plate with fresh Seahorse XF RPMI medium with 2 mM L-glutamine (PH 7.4), and treated with glucose (10 mM; Agilent), Oligomycin (1.5 and 2-DG (50 mM; Sigma-Aldrich) orderly in Glycolysis Stress assay.

activated murine B cells = test: TMRM staining of mitochondrial membrane potential in activated murine B cells; format: cell-based, mouse; conditions: 72 hours; for mitochondrial membrane potential (TMRM): substance alone
Procedure: (§1) For analysis of surface markers, cells were stained in PBS containing 1% (w/v) bovine serum albumin on ice for 30 minutes, with anti-IgG1 (RMG1-1, Biolegend), anti-CD19 (ID3, Biolegend) anti-B220 (RA3-6B2, Biolegend), anti-CD4 (GK1.5, Biolegend), anti-CD8 (53-6.7, Biolegend), anti-CD25 (PC16, Biolegend), anti-GL7 (GL-7, Biolegend), anti-CD95 (Jo2, BD Biosciences), anti-CD138 (281-2, Biolegend), anti-IgD (11-26c.2a, Biolegend), anti-PD-1 (J43, ThermoFisher), anti-IgM (II/41, ThermoFisher). Antigen specific GC response was detected with tetramer NP-phycoerythrin conjugated with PE (Biosearch Technologies). CXCR5 was stained with biotinylated anti-CXCR5 (2G8) followed by staining with streptavidin-conjugated PE (both from BD Biosciences). Cell viability was assessed using the Fixable Dye Ghost 510 (Tonbo Bioscience) or Annexin V cell apoptosis kit with 7-AAD (ThermoFisher) following the manufacturer's protocol. Phosflow staining for phospho-S6 (S235/236) was performed using Phosflow Fix/Perm kit (BD Biosciences). Mitochondrial potential was measured by staining with 20 nM TMRM (ThermoFisher) following manufacturer's instructions. Flow cytometry was performed on the LSR II, LSR Fortessa (BD Biosciences) or Attune NxT (ThermoFisher) cytometers, and analysis was performed using FlowJo software (Tree Star).

SCD = test: Fatty acid composition of fresh and activated B cells by LC-MS/MS; format: cell-based, mouse; conditions: 100 nM SSI-4, 48 hours
GFP-LC3 = test: Flow cytometry of GFP-LC3 in activated B cells from GFP-LC3 reporter mouse; format: cell-based; conditions: SSI-4 ex vivo
Procedure: as §1

mice = test: Mice fed SSI-4 chow: serum fatty acids (GC-MS) and lymphocyte development; format: in vivo, mouse
[1] = tested on: influenza A infected mice; test: Influenza A/PR8 infection of mice fed SSI-4 chow; format: in vivo, mouse
Procedure: For influenza virus infection, influenza A/PR8 strain (200 pfu/mouse) were diluted in FBS-free DMEM media on ice and inoculated in anesthetized mice through intranasal route. Sera were collected before and two weeks after infection for fatty acid component measurement. The mice were fed with control chow or SSI-4 chow for 1 week following influenza infection before switching to regular diet. The mediastinal lymph nodes were analyzed for GC B cell formation and Tfh differentiation. Mice were bred and maintained under specific pathogen-free conditions in Department of Comparative Medicine of Mayo Clinic with IACUC approval.
as §1
For NP specific antibodies detection in sera, 96-well plates (2596; Costar) were coated with 2 μg/mL NP23-BSA in PBS overnight. Plates were washed twice (0.05% Tween 20 in PBS), blocked with 5% blocking protein (Bio-Rad) for 1 hour, and washed twice, and serially diluted serum samples were added for 1.5 hours at 37° C. Plates were washed four times and horseradish peroxidase (HRP)-conjugated detection Abs for IgG (Bethyl Laboratories) and IgG1 (Bethyl Laboratories) were added for 1 hour at RT, washed four times, and tetramethylbenzidine (TMB) substrate was added. Reaction was stopped using 2N H2SO4 and read at 450 nm. Similarly, antibodies IgG, IgG1 and IgG2c specific to influenza A/PR8 strain in sera were measured with influenza virus coated plate.

MRL/MpJ-Faslpr mice = test: MRL/MpJ-Faslpr lupus mouse model fed SSI-4 chow; format: in vivo
Procedure: (§2) MRL/MpJ-Fas^lpr mice and B6 (C)-H2-Ab1^bm12/KhEgJ (bm12) mice were purchased from the Jackson Laboratory. Six weeks old female MRL/MpJ-Fas^lpr mice were treated with control chow or SSI-4 chow (60 mg/kg, on a two-week SSI-4 chow/control-chow alternating schedule) ad libitum for 15 weeks. Proteinuria was measured using Albustix strips (Siemens). Kidney histology was done using routine H&E staining. Thirty million splenocytes from 8 weeks old B6 (C)-H2-Ab1^bm12/KhEgJ (bm12) mice were transferred into C57BL/6 mice intraperitoneally. Mice were fed with control chow or SSI-4 chow (30 mg/kg, on an one-week SSI-4 chow/control-chow alternating schedule) ad libitum for 8 weeks.
(§3) For analysis of surface markers, cells were stained in PBS containing 1% (w/v) bovine serum albumin on ice for 30 minutes, with anti-B220 (RA3-6B2, Biolegend), anti-CD4 (GK1.5, Biolegend), anti-CD138 (281-2, Biolegend), anti-PD-1 (J43, ThermoFisher). CXCR5 was stained with biotinylated anti-CXCR5 (2G8) followed by staining with streptavidin-conjugated PE (both from BD Biosciences). Cell viability was assessed using the Fixable Dye Ghost 510 (Tonbo Bioscience) following the manufacturer's protocol. Flow cytometry was performed on the LSR II, LSR Fortessa (BD Biosciences) or Attune NxT (ThermoFisher) cytometers, and analysis was performed using FlowJo software (Tree Star).

[2] = tested on: C57BL/6 mice receiving bm12 splenocytes; test: bm12 splenocyte transfer lupus (cGvHD) model fed SSI-4 chow; format: in vivo, mouse; conditions: SSI-4 chow 30 mg/kg
Procedure: as §2, §3

## CCCCCCCC/C=C\CCCCCCCC(=O)O [OA, oleic acid]
Activated human B cells; exogenous OA, 72 h
  human B cell glycolysis (ECAR): improved human B cell glycolysis
Activated human B cells; exogenous fatty acid, 72 hours
  respiration (OCR) in activated human B cells: augmented respiration
Activated murine B cells; SSI-4 plus OA
  mitochondrial membrane potential (TMRM) under SCD inhibition with exogenous OA: corrected
Activated murine B cells
  mitochondrial membrane potential (TMRM): able to increase mitochondrial membrane potential

## CNC(=O)c1ccnc(NC(=O)N2CCC(Oc3ccccc3Cl)CC2)c1 [SSI-4, 2-{[4-(2-Chlorophenoxy)piperidine-1-carbonyl]amino}-N-methylpyridine-4-carboxamide]
SCD
  accumulation of MUFAs (PO, OA) in activated B cells: largely reversed it
Activated murine B cells
  mitochondrial membrane potential (TMRM): reduced mitochondrial membrane potential
GFP-LC3
  GFP-LC3 expression (MFI): higher LC3 expression
mice; SSI-4 chow
  CD25+ pre-B cells in bone marrow: significant reduction
  GC percentage and IgA expression in Peyer's patches: modest reduction
  composition of thymocytes: unaffected
  number of peripheral B cells and CD4+ T cells: not affected
  pool of immature B cells and B cell precursors (CD19+ B220int) in bone marrow: significant reduction
mice; SSI-4 chow for 1 week, GC-MS
  serum OA and PO concentration: markedly reduced
mice; SSI-4 chow, spleen
  frequency of mature B cells (CD19+IgMloIgD+): slightly increased
[1]; ELISA
  production of anti-influenza total IgG, IgG1 and IgG2c in sera: significantly dampened
[1]; SSI-4 chow for 1 week following infection vs control chow
  body weight loss in influenza A infected mice: substantially more severe weight loss
[1]; day 11 following infection
  frequency of GC B cells in mediastinal lymph nodes: significantly reduced
[1]; influenza infection
  CD138+ plasmablast formation: did not affect
[1]; mediastinal lymph nodes
  expression of Bcl6 in B cells: significantly reduced
MRL/MpJ-Faslpr mice; SSI-4 chow 60 mg/kg, alternating schedule
  kidney histology (H&E): reduced immune cell infiltration and inflammation
MRL/MpJ-Faslpr mice; SSI-4 chow 60 mg/kg, two-week alternating schedule, from 6 weeks old, measured from 8 weeks old
  proteinuria: no increase of proteinuria
MRL/MpJ-Faslpr mice; flow cytometry
  B cell proliferation measured by Ki-67 expression: significantly reduced
MRL/MpJ-Faslpr mice; flow cytometry MFI
  B cell metabolic activity measured by expression of CD98: significantly reduced
[2]
  generation of CXCR5+PD-1+ follicular helper T cells: reduced
  generation of IgD-CD138+ plasma cells: reduced
[2]; one-week alternating schedule, 8 weeks, ELISA
  serum anti-dsDNA autoantibody level: reduced
